How the values were obtained:
[1] = test system: Lymphatic leukemia L 1210; assay: Lymphatic leukemia L 1210 survival in mice; assay type: in vivo, CDF1 (C3H×DBA/2)F1 mice; settings: one i.p. injection; for Weight change Δv: T - C up to the 5th day
Excerpt: The experimental design and the interpretation of the results are in accordance with the standards set by the CCNSC (Cancer Chemotherpy Reports, January 1959 and December 1962).
Lymphatic leukemia L 1210.
Experimental animals: CDF1 (C3H×DBA/2)F1 mice
Tumour implant: 10^5 tumour cells i.p.
Therapy: One injection i.p. on the day following implanta-
Evaluation: (a) The survival time of the test animals (t)
expressed as the percentage of that of control animals (c).
(b) Weight change in the test animals (T) compared with that
of the control animals (C) up to the 5th day.
(c) The mortality rate must not exceed 35% in the test
animals on the 5th day of therapy.

[2] = target: T1, rabbit uterus cytosol progesterone receptor (Oryctolagus cuniculus, UniProt P06186); assay: Relative affinity to rabbit uterus cytosol progesterone receptor (3H-progesterone competition); assay type: binding; settings: compared to progesterone; 50% competition with 3H-progesterone; 16-18 hours at 4° C.
T1 construct: One ml portions of the supernatant (rabbit uterus cytosol) were pipetted into small centrifuge tubes of glass; from tissue; host or cells: uterus cytosol (105,000×g supernatant) of female rabbits pretreated with polyestradiol phosphate
T1 sequence (P06186 1-930): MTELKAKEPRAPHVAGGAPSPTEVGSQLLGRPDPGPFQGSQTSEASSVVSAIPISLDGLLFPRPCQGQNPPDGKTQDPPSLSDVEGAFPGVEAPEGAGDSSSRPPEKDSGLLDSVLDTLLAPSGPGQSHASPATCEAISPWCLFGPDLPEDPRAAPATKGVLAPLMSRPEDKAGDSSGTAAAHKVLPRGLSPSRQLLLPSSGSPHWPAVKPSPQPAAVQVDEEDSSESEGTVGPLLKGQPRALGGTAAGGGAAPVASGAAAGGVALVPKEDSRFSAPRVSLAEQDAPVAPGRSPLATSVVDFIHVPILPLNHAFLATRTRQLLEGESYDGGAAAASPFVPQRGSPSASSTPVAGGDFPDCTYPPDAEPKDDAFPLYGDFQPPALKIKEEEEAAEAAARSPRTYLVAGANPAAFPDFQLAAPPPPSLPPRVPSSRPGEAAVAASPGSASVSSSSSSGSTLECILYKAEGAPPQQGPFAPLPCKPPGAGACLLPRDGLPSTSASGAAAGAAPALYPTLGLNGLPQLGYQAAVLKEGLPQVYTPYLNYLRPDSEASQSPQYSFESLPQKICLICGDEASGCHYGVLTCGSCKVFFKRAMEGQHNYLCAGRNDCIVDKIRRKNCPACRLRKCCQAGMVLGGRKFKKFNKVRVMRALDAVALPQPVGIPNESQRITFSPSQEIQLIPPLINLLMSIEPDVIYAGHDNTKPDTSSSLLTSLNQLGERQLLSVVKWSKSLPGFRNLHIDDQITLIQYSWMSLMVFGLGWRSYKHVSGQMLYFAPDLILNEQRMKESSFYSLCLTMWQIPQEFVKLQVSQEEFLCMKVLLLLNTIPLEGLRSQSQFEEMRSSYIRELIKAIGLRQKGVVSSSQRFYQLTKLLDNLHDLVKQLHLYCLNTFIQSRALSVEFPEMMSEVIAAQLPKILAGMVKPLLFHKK
Experimental: This example illustrates the compound's relative affinity to rabbit uterus cytosol progesterone receptor compared with progesterone. The method used for this purpose is a modification of methods already described by Kontula, K. et al. (Acta Endocrinol. 78 (1975) 574) and Terenius, L. (Steroids 23 (1974) 909) among others.
Female rabbits (3-4 pounds) from Knut Larsen, Uddevalla, Sweden, were injected i.m. with 1 mg Estradurin (polyestradiol phosphate, 1 mg/ml saline, AB Leo, Sweden). After one week, the animals were killed and the uteri were immediately removed, chilled and cut free from connective tissues. All the following operations were performed at 0°-4° C. The uteri were cut into small pieces and washed several times with 3 vol. of buffer at pH 7.4 containing 50 MM TRIS-HCl, 1.5 mM EDTA, 3 mM NaN3, 2 mM dithiothreitol, and 25% glycerol (by vol.). The tissue was homogenized in the same buffer (3 vol.) with four 15-s bursts at rheostat setting 36-37 of an Ultra Turrax (Janke and Kunkel KG, Staufen, The Federal Republic of Germany). The homogenate was centifuged in a Sorvall GLC-2 centrifuge for 15 min at 600×g. The supernatanate was recentrifuged at 105,000×g for 60 min in a Beckman ultracentrifuge model LB-65-B with rotor SW 56.
One ml portions of the supernatant (rabbit uterus cytosol) were pipetted into small centrifuge tubes of glass and were kept at -70° C. until used. The protein content was determined by the method of Lowry (J. Biol. Chem. 193 (1951) 265).
10.0 mg of each compound was dissolved in 10.0 ml 99.5% ethanol. 100 μl of this standard solution was diluted to 5.0 ml ethanol/glycerol 1:1 (v/v). The ethanol was evaporated by blowing air at 40° C. on the solution. The volume was then adjusted to 5.0 ml by adding buffer without glycerol.
The compounds were diluted with glycerol/buffer 1:1 to final concentrations between 10^-8 -10^-5 M in total 300 μl incubation media. 100 μl of each compound and of each dilution were incubated in small centrifuge tubes (2 ml) together with 100 μl (10 pg) ^3 H-progesterone (1,2,6,7-3H-progesterone, 47.8 Ci/mMol, The Radiochemical Centre, Amersham, England) and 100 μl cytosol adjusted with buffer to a final concentration of about […]. The incubations were carried out for 16-18 hours at 4° C.
The separation of bound from free radioactivity was carried out at 0° C. using the dextran coated charcoal technique (DCC). To each incubation tube was added 0.5 ml DCC-suspension (0.05% dextran-70, Pharmacia, Uppsala, Sweden and 0.5% Norit A, Sigma, Saint Louis, Missouri, U.S.A.) The tubes were agitated 2-3 times during 10 minutes whereupon they were centrifuged at 100×g for five minutes. The supernatantes were decanted directly into Scintillation vials (polyethene, Packard) containing 10 ml InstaGel (Packard). The radioactivity was counted in a Philip's liquid scintillation spectrometer Model PW 4510/00 with external standard and automatic quenching correction.
To incubation tubes were added 100 μl cytosol, 100 μl ^3 H-progesterone (10 pg) and 100 μl of different dilutions of non-radioactive progesterone in glycerol/buffer 1:1 ranging from 0-10^4 pg/100 μl. The tubes were incubated parallel with the compounds described above. The radioactivity was calculated by substracting the counted radioactivity in the incubation tubes with the radioactivity counted in incubations tubes in which the cytosol was replaced with buffer (100 μl).
The concentration of non-radioactive progesterone [P]i which competes for 50% of bound radioactive progesterone was calculated from the standard curve constructed [B] i/[B] o=0.5 where [B]i is the bound radioactivity at different concentrations of non-radioactive progesterone and [B]o is the bound radioactivity at progesterone concentration zero.
In the same manner, curves were constructed for each compound X and the concentration for each compound which competes for 50% with bound ^3 H-progesterone ([X]50) was calculated. […]

Compound: CC(=O)[C@@]1(OC(=O)COC(=O)c2ccc(C)c(N(CCCl)CCCl)c2)CC[C@H]2[C@@H]3CCC4=CC(=O)CC[C@]4(C)[C@H]3CC[C@@]21C [Compound 3:7, 17α-/3-(N,N-bis(2-chloroethyl)amino)-4-methylbenzoyloxyacetoxy/pregn-4-ene-3,20-dione]
- Effect (survival time of test animals as percentage of that of control animals) ([1]; 250 mg/kg): 130%
- Mortality ([1]; 250 mg/kg): 0/20
- Weight change Δv ([1]; 250 mg/kg): -4.0 g
- Effect (survival time of test animals as percentage of that of control animals) ([1]; 500 mg/kg): 172%
- Mortality ([1]; 500 mg/kg): 0/19
- Weight change Δv ([1]; 500 mg/kg): -5.2 g
- relative binding affinity (RBA) [2]: 1.8%

From patent publication US4177269A, “Novel 17-esters of 17α-hydroxy gestogens, compositions containing such compounds, processes for their preparation and methods of treatment therewith” (Aktiebolaget Leo, priority 1976, dated 1979)
